# Measurements as given in patent US11123279B2, “Cosmetic composition and the use thereof for regulating skin quality” (priority 2016, dated 2021).
# Read-outs that look alike come from different tables or passages of the source.
# Key:
# B16 melanocyte cells [1] = assay: B16 cell melanogenesis inhibition assay; assay type: cell-based
# B16 melanocyte cells [2] = system: B16 melanocyte cells
# Experimental: Cytotoxicity activities to determine cell viability were obtained as follows. B16 melanocyte cells were plated in a 24 well-plate one day before the actual assay. Fresh DMEM (with phenol red) containing 10% FBS was added to dilute the cells to an appropriate density, 0.025×10^6 cells for a 24 well-plate. 1 ml of the DMEM with 10% FBS was added to each well. […] The well-plate with treated cells were then left in the incubator at 37° C., 5% CO2 for approximately 16 hours overnight. The media was removed and 1 ml of PBS solution was added into each well to wash and remove the colour of the phenol red in the DMEM. Then, 1 ml of fresh PBS was added into each individual well. 15 μl of the prepared Resazurin stock solution was added (8 μg/ml) into each well containing the compounds. The Resazurin stock solution was prepared by adding 800 μg of Resazurin sodium salt in 10 ml of PBS (pH 7.4) to make a concentration of 80 μg/ml, which was further diluted by adding 0.1 ml of the 80 μg/ml solution to 0.9 ml of PBS to make 8 μg/ml of stock solution. The well-plates were incubated at 37° C. for 2 hours. The plate was immediately read, after 2 hours, using a BioTek Synergy HTX multi-mode reader at an emission and excitation wavelength of 600 nm and 528 nm respectively, with a gain of 35. The results were automatically recorded in an excel spreadsheet.
# [3] = system: arm skin of Southeast Asian women; conditions: in vivo
# Excerpt: The cream base used for blending the active ingredients contained the ingredients as follows: Aqua, Butyrospermum parkii, caprylic/capric triglyceride, C12-15 alkyl benzoate, cetearyl isononanoate, cyclomethicone, butylene glycol, hydroxyethyl acrylate, sodium dimethyl taurate copolymer, Aloe barbadensis leaf juice.
# Pseudomonas aeruginosa = assay: Antimicrobial activity, resistance of cream to microbial contamination; assay type: cell-based; conditions: tested individually at 0.05%
# [4] = Viscosity measurement of creams; assay type: physicochemical; conditions: 0.5 wt % in base cream of 25,000 mPa·s
# Experimental: Rheological properties of the creams with different cosmetic compositions were evaluated based on viscosity measurements. The individually tested samples were dissolved in a base cream (control) with a viscosity of 25,000 mPa·s. The cream base used for blending the active ingredients contained the ingredients as follows: Aqua, Butyrospermum parkii, caprylic/capric triglyceride, C12-15 alkyl benzoate, cetearyl isononanoate, cyclomethicone, butylene glycol, hydroxyethyl acrylate, sodium dimethyl taurate copolymer, Aloe barbadensis leaf juice. The cream base was white in colour, with a pH ranges between 4.5 and 5.5.
# [5] = system: arm skin of Southeast Asian women; assay: Subject self-assessment questionnaire and preference in the skin lightening study (Example 1); assay type: in vivo, human; conditions: by day 14 of the trial
# Excerpt: Table V illustrates the ranking of the various compositions from best to worst based on user satisfaction measurements. The questionnaire was formulated to include the questions such as: 1) what were your first impressions after application of the various compositions? 2) How quickly do you expect to see a lightening effect? 3) Are you satisfied with the quality of skin lightening achieved? 4) How many days after the first application of the various compositions did you observe a lightening effect? 5) are you satisfied with the quality of skin lightening achieved? 6) How many days after the first application of the test product did you observe a lightening effect?
# Indian and Chinese skins = assay: Skin tone (a*, b*) and general skin quality observation (Examples 5 and 6); assay type: in vivo, human; conditions: Chinese skin and especially Indian skin
# Experimental: […]. The a* (rosy-red tone) and b* (yellow tone) components of the skin tone were monitored.
# Over the 28-day period, the a* (rosy-red tone) component of Indian skin increased, and the b* (yellow tone) component of Indian and Chinese skins decreased. […] Before starting the study, all subjects' melanin index, L*a*b* and ITA value were measured at the tested site using Mexameter MX18 and Courage+Khazaka (CK) Colorimeter CL 400. Photos and instrument measurements were taken at the start of the testing (Day 0), during the testing (D2, D5, D7, D9, D12) and after the testing (D14, D21 and D28). […] Each subject applied 5 products on the left arm. Subjects wore an arm sleeve over part of the right arm for the occluded site, so as to provide 2 negative controls, one occluded from light and UV-radiation (right arm) and one covered under fabric (left arm) so as to understand the effect of melanogenesis even when no light is passing through. The tested areas were evaluated on their skin melanin index, L*a*b* and ITA after D2, D5, D7, D9, D12, D14, D21 and D28 of application using Mexameter MX 18 and CK Colorimeter CL400.
# As part of the same experiment above, general skin quality effects were also observed.
# [6] = B16 cultured melanocyte cells, 3 days incubation, melanin OD at 480 nm
# [7] = Melanocyte, 72 h, B16 cultured melanocyte cells, 3 days incubation, melanin OD at 480 nm; read-out: IC50, melanogenesis inhibition
# [8] = Melanocyte, 72 h; read-out: IC50, melanogenesis inhibition
compound,measurement,setting,value
"CC1=CC(=O)[N-]S(=O)(=O)O1.[K+] [Acesulphame K (ASK), Acesulphame K (Potassium Acesulphame)]",IC50,"B16 melanocyte cells [1]; Melanocyte, 72 h, read-out: IC50, melanogenesis inhibition",58 µg/mL
"CC(=O)Oc1ccccc1C(=O)O [Acetylsalicylic Acid, Acetyl Salicylic Acid]","IC50, melanogenesis inhibition",B16 melanocyte cells [1]; [6],262 µg/mL
"O=C(O)c1cc(O)[nH]c(=O)c1 [Citrazinic Acid, Citrazinic acid]","IC50, melanogenesis inhibition",B16 melanocyte cells [1]; [6],77 µg/mL
same,IC50,B16 melanocyte cells [1]; [7],59 to 262 µg/mL
O=C1O[C@H]([C@H](O)CO)C(O)=C1O [Erythorbic Acid],IC50,B16 melanocyte cells [1]; [7],73 µg/mL
CCc1occc(=O)c1O [Ethyl Maltol],concentrations resulting in cell toxicity,B16 melanocyte cells [2]; mouse,greater than 100 μM
same,"IC50, melanogenesis inhibition",B16 melanocyte cells [1]; [6],59 µg/mL
same,IC50,B16 melanocyte cells [1]; [7],59 to 262 µg/mL
Nc1nc2[nH]cnc2c(=O)[nH]1 [Guanine],IC50,B16 melanocyte cells [1]; [8],56 µg/mL
"Nc1nc2c(ncn2[C@@H]2O[C@H](COP(=O)(O)O)[C@@H](O)[C@H]2O)c(=O)[nH]1 [Guanosine Monophosphate, Guanosine Mono- phosphate]",IC50,B16 melanocyte cells [1]; [7],70 µg/mL
O=c1[nH]cnc2[nH]cnc12 [Hypoxanthine],IC50,B16 melanocyte cells [1]; [7],70 µg/mL
O=c1[nH]c2ccccc2c(=O)o1 [Isatoic Anhydride],IC50,B16 melanocyte cells [1]; [8],132 µg/mL
"O=c1cc(CO)occ1O [Kojic acid (Standard), Kojic acid, reference compound]",IC50,B16 melanocyte cells [1]; [7],51 µg/mL
"Cc1occc(=O)c1O [Maltol, 3-hydroxy-2-methyl-4H-pyran-4-one]",cytotoxic activities on intact human skin,[3],no real cytotoxic activities
same,cytotoxic activities on B16 cells,B16 melanocyte cells [2],no real cytotoxic activities
same,IC50,B16 melanocyte cells [1]; [7],65 µg/mL
same,inhibition of the growth of P. aeruginosa,Pseudomonas aeruginosa,completely inhibited
O=C1NC(=O)c2ccccc21 [Phthalimide],IC50,B16 melanocyte cells [1]; [7],89 µg/mL
"O=C1NS(=O)(=O)c2ccccc21 [Saccharin, 2H-1lamda 6,2-benzothiazol-1,1,3-trione]",cytotoxic activities on B16 cells,B16 melanocyte cells [2],no real cytotoxic activities
Cn1cnc2c1c(=O)[nH]c(=O)n2C [Theobromine],IC50,B16 melanocyte cells [1]; [7],37 µg/mL
O=c1cc[nH]c(=O)[nH]1 [Uracil],IC50,B16 melanocyte cells [1]; [7],143 µg/mL
"O=C1O[C@H]([C@@H](O)CO)C(O)=C1O[C@H]1O[C@H](CO)[C@@H](O)[C@H](O)[C@H]1O [ascorbic acid-2-glucoside (AA2G), ascorbic acid-2-glucoside]",viscosity of the cream,[4],"26,000 mPa·s"
NC(=O)c1cccnc1 [niacinamide],subjects who observed and reported lightening of their skin,[5],82%
same,effects on a* and b* skin tone compared with the maltol/saccharin cream,Indian and Chinese skins,diametrically opposite effects
Dehydroacetic Acid [Dehydroacetic Acid (DHAA)],"IC50, melanogenesis inhibition",B16 melanocyte cells [1],73 µg/mL
